Results on 2 compounds are retold here after US10047051B2, “Substituted pyridines and method of use” (AbbVie S.á{acute over (.)}r.l., priority 2015, dated 2018).

One may read the EC50 as the concentration needed to bring the measured effect to its halfway point.

Type in all cases: cell-based
The target in assay [1] is T1, CFTR ΔF508 mutant (Homo sapiens, UniProt P13569, DEL508-508).
T1 construct: expressed in transfected cells; host or cells: CFBE41o- cells, adenoviral transduction
The experiment in a line: YFP-halide influx assay for the CFTR-ΔF508 mutation (CFBE41o- cells). The settings on record: forskolin 10.67 μM; for EC50: from (1−F/F0) vs concentration plot. In short, it runs like this: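 EC50 derived from plotting 1−F/F0 (fluorescence 36 s after iodide injection over pre-injection value) against compound concentration. Cells: CFBE41o- transduced with ΔF508-CFTR and YFP quench reporter, corrected 24 h at 27° C or by a CFTR modulator at 37° C.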

In assay [2] the target is T2, CFTR G551D mutant (Homo sapiens, UniProt P13569, G551D).
T2 construct: expressed in transfected cells; host or cells: HEK293 cells, reverse transfection with plasmids
T2 sequence (P13569 whole entry G551D): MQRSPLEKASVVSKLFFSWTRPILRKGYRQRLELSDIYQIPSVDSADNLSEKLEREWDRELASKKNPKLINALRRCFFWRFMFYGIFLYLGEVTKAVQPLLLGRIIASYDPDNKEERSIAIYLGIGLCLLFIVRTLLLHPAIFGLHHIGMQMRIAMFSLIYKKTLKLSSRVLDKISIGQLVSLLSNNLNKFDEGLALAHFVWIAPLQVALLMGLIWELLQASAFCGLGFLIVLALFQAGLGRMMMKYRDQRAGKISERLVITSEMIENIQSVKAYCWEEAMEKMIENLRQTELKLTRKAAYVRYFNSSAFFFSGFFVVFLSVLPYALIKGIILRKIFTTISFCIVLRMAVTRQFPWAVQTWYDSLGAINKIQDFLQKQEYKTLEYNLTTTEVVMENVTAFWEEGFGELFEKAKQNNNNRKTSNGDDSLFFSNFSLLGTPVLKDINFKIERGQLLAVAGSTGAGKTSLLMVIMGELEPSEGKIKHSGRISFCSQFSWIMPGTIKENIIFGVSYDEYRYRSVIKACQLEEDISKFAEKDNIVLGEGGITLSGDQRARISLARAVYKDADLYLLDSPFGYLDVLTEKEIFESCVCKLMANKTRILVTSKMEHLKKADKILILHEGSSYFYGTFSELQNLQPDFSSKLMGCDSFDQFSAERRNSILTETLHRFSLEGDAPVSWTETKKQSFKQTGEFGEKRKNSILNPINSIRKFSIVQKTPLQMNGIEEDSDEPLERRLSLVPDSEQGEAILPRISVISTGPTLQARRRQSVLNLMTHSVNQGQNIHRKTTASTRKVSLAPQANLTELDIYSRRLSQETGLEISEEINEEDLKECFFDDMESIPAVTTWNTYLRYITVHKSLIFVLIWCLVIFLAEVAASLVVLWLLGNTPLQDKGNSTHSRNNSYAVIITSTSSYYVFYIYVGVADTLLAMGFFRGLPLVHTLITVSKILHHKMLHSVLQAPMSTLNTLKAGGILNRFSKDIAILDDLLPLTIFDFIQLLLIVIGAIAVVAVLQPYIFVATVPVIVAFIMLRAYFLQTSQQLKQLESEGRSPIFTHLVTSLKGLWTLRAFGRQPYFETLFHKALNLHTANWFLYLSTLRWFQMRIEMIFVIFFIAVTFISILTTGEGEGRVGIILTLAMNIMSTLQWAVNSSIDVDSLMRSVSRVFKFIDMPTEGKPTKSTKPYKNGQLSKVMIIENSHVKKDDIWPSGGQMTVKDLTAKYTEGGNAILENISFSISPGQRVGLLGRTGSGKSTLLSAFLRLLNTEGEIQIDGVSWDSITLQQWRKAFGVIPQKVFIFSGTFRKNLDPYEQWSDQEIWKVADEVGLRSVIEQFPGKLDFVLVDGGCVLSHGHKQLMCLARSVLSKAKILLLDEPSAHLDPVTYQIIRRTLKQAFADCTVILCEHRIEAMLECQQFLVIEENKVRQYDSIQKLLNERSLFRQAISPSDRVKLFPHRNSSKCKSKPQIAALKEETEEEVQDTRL
Nature of the assay: YFP-halide influx assay for the CFTR-G551D mutation (HEK293 cells). The following applies: forskolin 10.67 μM. In short, it runs like this:
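Channel opening read as I⁻-driven quenching of a YFP H148Q/I152L/F47L reporter over 7 s post-injection, expressed as 1−F/F0 and fitted against concentration for EC50. Cells were HEK293 co-transfected at seeding with G551D CFTR plus reporter, then grown 24 h at 37 °C, 5% CO2.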

In assay [3] the target is T3, CFTR-G178R (Homo sapiens, UniProt P13569, G178R).
T3 construct: expressed in transfected cells
T3 sequence (P13569 whole entry G178R): as the sequence (P13569 whole entry G551D) above, with G178R, D551G counted along it
The experiment in a line: YFP-halide influx assay for the CFTR-G178R. In short, it runs like this:
(§1)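 HEK293 cells reverse-transfected with a CFTR mutant and YFP H148Q/I152L/F47L halide sensor, expressed 24 h at 37° C. Fluorescence quenching followed for 7 s after I⁻ injection; activity expressed as 1−F/F0, with EC50 fitted from 1−F/F0 versus compound concentration.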

Assay [4] addresses T4, CFTR-G1349D (Homo sapiens, UniProt P13569, G1349D).
T4 construct: expressed in transfected cells
The experiment in a line: YFP-halide influx assay for the CFTR-G1349D. In short, it runs like this:
as §1

The target of assay [5] is T5, CFTR-S549N (Homo sapiens, UniProt P13569, S549N).
T5 construct: expressed in transfected cells
T5 sequence (P13569 whole entry S549N): as the sequence (P13569 whole entry G551D) above, with S549N, D551G counted along it
The experiment in a line: YFP-halide influx assay for the CFTR-S549N. On the set-up: % Activation: concentration or dose not given beside the values. An outline of the steps: as §1

Assay [6] has as its target T6, CFTR-R117H (Homo sapiens, UniProt P13569, R117H).
T6 construct: expressed in transfected cells
Nature of the assay: YFP-halide influx assay for the CFTR-R117H. An outline of the steps: as §1

Assay [7] has as its target T7, CFTR G551D/ΔF508 (Homo sapiens, UniProt P13569, G551D).
T7 construct: host or cells: primary human bronchial epithelial cells from CF patients heterozygous G551D/ΔF508, no corrector pre-treatment
The experiment in a line: TECC assay, primary bronchial epithelial cells, CFTR G551D/ΔF508. The following applies: primary bronchial epithelial cells heterozygous G551D/ΔF508, acute mode, increase in Isc after forskolin. The procedure: (§2) The TECC (Tranepithelial Clamp Circuit, EP-design) assay measures the functionality of the cystic fibrosis Transmembrane Conductance regulator (CFTR) by measuring the short circuit current (Isc) generated over the basolateral and apical membrane of lung epithelial cells. In TECC the transepithelial potential PD and transepithelial resistance (Rt) are measured in an open circuit and transformed to Isc using Ohm's law. 24 Wells can be measured simultaneously allowing a higher throughput compared to Ussing chambers.
(§3) For this purpose, bronchial epithelial cells isolated from CF patients homozygous for the CFTR ΔF508 mutation (hAEC-CF, Epithelix) are plated on type IV collagen-coated Transwell® supports (Costar). Human airway epithelia are generated by provision of an air-liquid interface for 21 days to form well-differentiated polarized cultures that resemble in vivo pseudo-stratified ciliated epithelium (Fulcher, M. L., Gabriel, S., Burns, K. A., Yankaskas, J. R., Randell, S. H., 2005. Well-differentiated human airway epithelial cell cultures. Methods Mol. Med. 107, 183-206). In the case of the homozygous ΔF508 CFTR samples, the differentiated cells are treated with 3 μM VX809 (2626 South Loop West, Suite 225, Houston, Tex. 77054 USA, Cat n# S1565) to allow sufficient expression of properly folded CFTR protein on the membrane (48 hours basolateral treatment and 24 hours apical treatment), prior to electrophysiological recordings. For heterozygous G551D/ΔF508, differentiated cells are used as such for the recordings.
(§4) Information on the compounds can be retrieved on the homozygous ΔF508 CFTR samples looking at increased CFTR activity when compounds are added in an acute mode or in a chronic mode. On G551D/ΔF508 CFTR heterozygous samples compounds are added in an acute mode to the differentiated cells.
(§5) For the acute mode, for electrophysiological recording, the human airway epithelia are mounted in the TECC heating plate for electrophysiological measurement and kept at 37° C. The epithelia are bathed in a NaCl-Ringer solution (120 mM NaCl, 25 mM NaHCO3, 1.2 mM CaCl2, 1.2 mM MgCl2, 0.8 mM KH2PO4, 0.8 mM K2HPO4, pH 7.4, 5 mM glucose) on both the basolateral and apical sides. Apical amiloride is used to inhibit the endogenous ENaC currents while forkolin is applied on both apical and basolateral side to stimulate CFTR. After forskolin triggering, compounds are added on both sides to test their potential for increasing CFTR gating. Measurements are done during a 20 minute timeframe with recordings every 2 minutes. The increase in Isc is used as a measure for the increased CFTR activity, EC50 values can be generated by measuring impact of different concentrations of compound on Isc on primary cells, for this purpose each transwell is treated with a different compound concentration. Inh-172, an inhibitor specific for CFTR, is used to test the specificity of the tested compounds.
When subjected to this protocol, the following values were obtained. The difference between ΔIsc measured as DMSO (baseline), and the ΔIsc measured with the compound tested.

The target of assay [8] is T8, CFTR ΔF508 (Homo sapiens, UniProt P13569, DEL508-508).
T8 construct: host or cells: primary human bronchial epithelial cells from CF patients homozygous for ΔF508, pre-treated with VX809
T8 sequence (P13569 with tags, fused parts or gaps DEL508-508): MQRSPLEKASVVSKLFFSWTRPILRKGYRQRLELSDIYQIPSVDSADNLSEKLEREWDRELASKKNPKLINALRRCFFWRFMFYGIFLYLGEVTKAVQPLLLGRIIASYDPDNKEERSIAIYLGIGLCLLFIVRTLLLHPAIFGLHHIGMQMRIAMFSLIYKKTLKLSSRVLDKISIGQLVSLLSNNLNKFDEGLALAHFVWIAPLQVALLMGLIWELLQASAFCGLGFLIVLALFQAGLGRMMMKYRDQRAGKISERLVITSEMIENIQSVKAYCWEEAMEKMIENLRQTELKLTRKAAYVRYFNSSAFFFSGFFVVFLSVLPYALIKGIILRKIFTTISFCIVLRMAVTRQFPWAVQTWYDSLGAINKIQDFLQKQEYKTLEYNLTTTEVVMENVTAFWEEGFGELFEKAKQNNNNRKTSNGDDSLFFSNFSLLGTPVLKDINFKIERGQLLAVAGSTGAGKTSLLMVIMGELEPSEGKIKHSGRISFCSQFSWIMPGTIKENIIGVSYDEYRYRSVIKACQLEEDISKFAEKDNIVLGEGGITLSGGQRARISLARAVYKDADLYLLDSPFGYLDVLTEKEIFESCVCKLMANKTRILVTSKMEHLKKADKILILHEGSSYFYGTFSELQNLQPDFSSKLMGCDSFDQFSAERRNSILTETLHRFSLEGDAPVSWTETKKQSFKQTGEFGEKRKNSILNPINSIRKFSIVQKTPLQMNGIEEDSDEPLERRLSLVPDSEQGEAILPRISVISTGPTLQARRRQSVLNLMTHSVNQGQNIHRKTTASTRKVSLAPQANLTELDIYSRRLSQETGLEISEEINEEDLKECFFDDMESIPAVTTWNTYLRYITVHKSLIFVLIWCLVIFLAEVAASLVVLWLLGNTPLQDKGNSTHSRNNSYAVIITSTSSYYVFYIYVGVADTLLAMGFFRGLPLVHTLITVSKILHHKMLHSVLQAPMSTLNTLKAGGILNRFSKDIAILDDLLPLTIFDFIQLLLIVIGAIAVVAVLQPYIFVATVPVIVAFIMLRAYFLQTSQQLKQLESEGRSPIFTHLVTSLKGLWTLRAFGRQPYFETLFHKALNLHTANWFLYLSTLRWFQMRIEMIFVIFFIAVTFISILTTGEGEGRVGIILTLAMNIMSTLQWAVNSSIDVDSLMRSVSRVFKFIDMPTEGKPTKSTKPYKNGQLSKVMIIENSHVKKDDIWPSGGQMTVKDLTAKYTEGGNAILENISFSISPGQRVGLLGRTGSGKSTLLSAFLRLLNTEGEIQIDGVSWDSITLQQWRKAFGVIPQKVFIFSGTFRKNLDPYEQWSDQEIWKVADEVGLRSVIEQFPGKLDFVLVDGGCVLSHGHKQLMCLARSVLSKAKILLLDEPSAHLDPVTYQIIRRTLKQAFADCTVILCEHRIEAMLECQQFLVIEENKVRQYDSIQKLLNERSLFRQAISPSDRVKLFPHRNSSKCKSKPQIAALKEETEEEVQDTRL
The experiment in a line: TECC assay, primary bronchial epithelial cells, CFTR ΔF508. The settings on record: primary bronchial epithelial cells of CF patients homozygous for CFTR ΔF508, treated with 3 μM VX809, increase in Isc after forskolin. The procedure: as §2, §3, §4, §5
For the chronic mode, the differentiated cells are treated with 3 μM VX809 (2626 South Loop West, Suite 225, Houston, Tex. 77054 USA, Cat n# S1565) and potentiator compounds at different concentrations (48 hours basolateral treatment and 24 hours apical treatment), prior to electrophysiological recordings. For electrophysiological recording, the human airway epithelia are mounted in the TECC heating plate for electrophysiological measurement and kept at 37° C. The epithelia are bathed in a NaCl-Ringer solution (120 mM NaCl, 25 mM NaHCO3, 1.2 mM CaCl2, 1.2 mM MgCl2, 0.8 mM KH2PO4, 0.8 mM K2HPO4, pH 7.4, 5 mM glucose) on both the basolateral and apical sides. Apical amiloride is used to inhibit the endogenous ENaC currents while forkolin is applied on both apical and basolateral side to stimulate CFTR. Measurements are done during a 20 minute timeframe with recordings every 2 minutes. […]

The structures appear in SMILES notation.

T1 sequence (P13569 with tags, fused parts or gaps DEL508-508): as above
T6 sequence (P13569 whole entry R117H): as the sequence (P13569 whole entry G551D) above, with R117H, D551G counted along it
T4 sequence (P13569 whole entry G1349D): as the sequence (P13569 whole entry G551D) above, with D551G, G1349D counted along it
T7 sequence (P13569 whole entry F508del/G551D): as the sequence (P13569 with tags, fused parts or gaps DEL508-508) above, with G550D counted along it

As to `Nc1cc(S(=O)(=O)c2ccccc2OC(F)(F)F)cnc1C(=O)N1CC(O)(C(F)(F)F)C1` [Compound 85, (3-amino-5-{[2-(trifluoromethoxy)phenyl]sulfonyl}pyridin-2-yl)[3-hydroxy-3-(trifluoromethyl)azetidin-1-yl]methanone], the “% Activation” value came to 110.5% in assay [1]; 51.7% in assay [2]; 77.69% in assay [3]; 90.89% in assay [4]; 104.8% in assay [5]; 103% in assay [6]. For the same compound, the EC50 in assay [1] turned out to be 1 nM; in assay [2] it was 28.9 nM; in assay [3], 3.29 nM; in assay [4], 2.73 nM; in assay [5] it was 3.29 nM; in assay [6], 3.83 nM. The same compound showed an EC50 in assay [7] of 9.5 nM.

Turning to `Nc1cc(S(=O)(=O)c2ccc(OC(F)(F)F)cc2)cnc1C(=O)NCCC(O)C(F)(F)F` (stereo not shown) [Compound 52, 3-amino-N-(4,4,4-trifluoro-3-hydroxybutyl)-5-{[4-(trifluoromethoxy)phenyl]sulfonyl}pyridine-2-carboxamide], the “% Activation” value in assay [1] is recorded as 96.6%; in assay [2], 48.8%. For the same compound, the EC50 in assay [1] turned out to be 8 nM; in assay [2] it was 458 nM; in assay [8], 38.3 nM; in assay [7], 461 nM.
